ChEMBL document CHEMBL3045019, “Antioxidant and antimicrobial studies of novel N-(substituted-2-chloroquinolin-3-yl)methylidene-4-hydroxy-2H-1,2-benzothiazine-3-carbohydrazides 1,1-dioxides” (2012)
≈ marks a conversion by molar mass, not a printed value.

Key:
Type in all cases: functional
Aspergillus niger = assay: Antifungal activity against Aspergillus niger after 3 to 5 days by agar dilution assay
Enterobacter cloacae = assay: Antibacterial activity against Enterobacter cloacae after 24 hr by agar dilution assay
[1] = Antioxidant activity assessed as superoxide radical scavenging activity by NBT reduction assay relative to control; parameters: concentration or dose not given beside the values
Bacillus thuringiensis = assay: Antibacterial activity against Bacillus thuringiensis after 24 hr by agar dilution assay
[2] = test system: Salmonella enterica subsp. enterica serovar Gallinarum; assay: Antibacterial activity against Salmonella enterica subsp. enterica serovar Gallinarum after 24 hr by agar dilution assay
Fusarium oxysporum = assay: Antifungal activity against Fusarium oxysporum after 3 to 5 days by agar dilution assay
Escherichia coli = assay: Antibacterial activity against Escherichia coli after 24 hr by agar dilution assay
Siminovitchia fortis = assay: Antibacterial activity against Bacillus fortis after 24 hr by agar dilution assay
Bacillus subtilis = assay: Antibacterial activity against Bacillus subtilis after 24 hr by agar dilution assay
Aspergillus flavus = assay: Antifungal activity against Aspergillus flavus after 3 to 5 days by agar dilution assay

| SMILES | MIC (Aspergillus niger) [µg/mL] | MIC (Enterobacter cloacae) [µg/mL] | MIC (Bacillus thuringiensis) [µg/mL] | MIC [2] [µg/mL] | MIC (Fusarium oxysporum) [µg/mL] | MIC (Escherichia coli) [µg/mL] | MIC (Siminovitchia fortis) [µg/mL] | MIC (Bacillus subtilis) [µg/mL] | MIC (Aspergillus flavus) [µg/mL] | Activity [1] [%] |
| --- | --- | --- | --- | --- | --- | --- | --- | --- | --- | --- |
| Cc1cccc2cc(/C=N/NC(=O)C3=C(O)c4ccccc4S(=O)(=O)N3C)c(Cl)nc12 | > 1000 | > 1000 | > 1000 | > 1000 | > 1000 | > 1000 | > 1000 | > 1000 | > 1000 | 61.3 |
| CN[C@@H]1[C@H](O[C@H]2[C@H](O[C@H]3[C@H](O)[C@@H](O)[C@H](N=C(N)N)[C@@H](O)[C@@H]3N=C(N)N)O[C@@H](C)[C@]2(O)C=O)O[C@@H](CO)[C@H](O)[C@H]1O [STREPTOMYCIN] | 1 (≈ 1.72 µM) | 1 (≈ 1.72 µM) | 3 (≈ 5.16 µM) | 1 (≈ 1.72 µM) | 1 (≈ 1.72 µM) | 0.7 (≈ 1.2 µM) | 0.9 (≈ 1.55 µM) | 1 (≈ 1.72 µM) | 0.7 (≈ 1.2 µM) |  |
| CC1(C)S[C@@H]2[C@H](NC(=O)[C@H](N)c3ccc(O)cc3)C(=O)N2[C@H]1C(=O)O [AMOXICILLIN] | 2 (≈ 5.47 µM) | 2 (≈ 5.47 µM) | 6 (≈ 16.4 µM) | 2 (≈ 5.47 µM) | 2 (≈ 5.47 µM) | 2 (≈ 5.47 µM) | 2 (≈ 5.47 µM) | 3 (≈ 8.21 µM) | 2 (≈ 5.47 µM) |  |
| CCCOC(=O)c1cc(O)c(O)c(O)c1 |  |  |  |  |  |  |  |  |  | 91.3 |
| Cc1ccc2cc(/C=N/NC(=O)C3=C(O)c4ccccc4S(=O)(=O)N3C)c(Cl)nc2c1 | > 1000 | > 1000 | > 100 | > 1000 | > 1000 | > 1000 | > 100 | > 100 | > 1000 | 51.9 |
| Cc1ccc2nc(Cl)c(/C=N/NC(=O)C3=C(O)c4ccccc4S(=O)(=O)N3C)cc2c1 | > 1000 | > 1000 | > 1000 | > 1000 | > 1000 | > 1000 | > 1000 | > 1000 | > 1000 | 51.2 |

Further lines, with some results ahead:

| MIC (Aspergillus niger) [µg/mL] | MIC (Enterobacter cloacae) [µg/mL] | MIC (Bacillus thuringiensis) [µg/mL] | MIC [2] [µg/mL] | MIC (Fusarium oxysporum) [µg/mL] | MIC (Escherichia coli) [µg/mL] | MIC (Siminovitchia fortis) [µg/mL] | MIC (Bacillus subtilis) [µg/mL] | MIC (Aspergillus flavus) [µg/mL] | SMILES | Activity [1] [%] |
| --- | --- | --- | --- | --- | --- | --- | --- | --- | --- | --- |
| > 100 | > 1000 | > 100 | > 1000 | > 100 | > 1000 | > 100 | > 100 | > 100 | Cc1ccc2nc(Cl)c(/C=N/NC(=O)C3=C(O)c4ccccc4S(=O)(=O)N3)cc2c1 | 51.8 |
| > 1000 | > 1000 | > 1000 | > 1000 | > 1000 | > 1000 | > 1000 | > 1000 | > 1000 | Cc1cccc2cc(/C=N/NC(=O)C3=C(O)c4ccccc4S(=O)(=O)N3)c(Cl)nc12 | 52.5 |
| > 1000 | > 1000 | > 1000 | > 1000 | > 1000 | > 1000 | > 1000 | > 1000 | > 1000 | Cc1ccc2cc(/C=N/NC(=O)C3=C(O)c4ccccc4S(=O)(=O)N3)c(Cl)nc2c1 | 49.1 |
| > 500 | > 1000 | > 100 | > 1000 | > 500 | > 1000 | > 100 | > 100 | > 500 | COc1ccc2nc(Cl)c(/C=N/NC(=O)C3=C(O)c4ccccc4S(=O)(=O)N3)cc2c1 | 69.7 |
| > 100 | > 1000 | > 200 | > 1000 | > 100 | > 1000 | > 200 | > 200 | > 100 | COc1ccc2nc(Cl)c(/C=N/NC(=O)C3=C(O)c4ccccc4S(=O)(=O)N3C)cc2c1 | 67.2 |
| > 200 | > 1000 | > 100 | > 1000 | > 200 | > 1000 | > 100 | > 1000 | > 200 | COc1ccc2cc(/C=N/NC(=O)C3=C(O)c4ccccc4S(=O)(=O)N3)c(Cl)nc2c1 | 72.1 |
| > 1000 | > 1000 | > 100 | > 1000 | > 1000 | > 1000 | > 100 | > 100 | > 1000 | COc1ccc2cc(/C=N/NC(=O)C3=C(O)c4ccccc4S(=O)(=O)N3C)c(Cl)nc2c1 | 65.1 |
